Experimental data as given in ChEMBL document CHEMBL1201862, “PubChem BioAssay data set” (2004).
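Growth conditions: 96-well plates. Treatment: test compound, 48 hours, 5 concentrations. Analysis: linear interpolation between bracketing concentrations; unreached endpoints set to highest concentration. GI50 marks 50% less growth.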 The source made the active and inactive calls. Rule as the data show it: active = GI50 up to about 1.1 µM and inactive = higher.

Experiments:
Test in all cases: NCI anticancer screen, dose series, 48 h
HOP-18 = test system: HOP-18
SNB-78 = test system: SNB-78
M19-MEL = test system: M19-MEL
DMS-114 = test system: DMS-114
DMS-273 = test system: DMS-273
KM-20L2 = test system: KM-20L2
DLD-1 = test system: DLD-1
Hs-578T = test system: Hs-578T
RXF 631 = test system: RXF 631

Cc1cc(N)c(C)c2c1[nH]c1ccc(O)cc12
GI50 (HOP-18): > 100 µM (inactive)
GI50 (SNB-78): > 100 µM (inactive)
GI50 (M19-MEL): 61 µM (inactive)
GI50 (DMS-114): > 10 µM (inactive)
GI50 (DMS-273): > 100 µM (inactive)

O=C1C2ON3c4ccccc4C(=O)C3(c3ccccc3)C2C(=O)N1c1ccccc1 (configuration not stated)
GI50 (HOP-18): > 100 µM (inactive)
GI50 (SNB-78): > 100 µM (inactive)
GI50 (KM-20L2): > 100 µM (inactive)
GI50 (M19-MEL): > 100 µM (inactive)
GI50 (DLD-1): > 100 µM (inactive)
GI50 (DMS-273): > 100 µM (inactive)

COC1CC(C)([N+](=O)[O-])C(O)C(C)O1 (configuration not stated)
GI50 (Hs-578T): > 100 µM (inactive)

COc1ccc2c(c1)c(CC(=O)O)c(C)n2C(=O)c1ccc(Cl)cc1
GI50 (Hs-578T): > 100 µM (inactive)

CCCCCC1=CC(=O)C1(Cl)Cl
GI50 (Hs-578T): 19 µM (inactive)

CCCC(CC)c1c(O)c(O)c(C(CC)CCC)c(C(CC)CCC)c1C(CC)CCC (configuration not stated)
GI50 (Hs-578T): > 10 µM (inactive)

O=c1c2cc(Cl)ccc2[nH]c2cc(O)cc(O)c12
GI50 (Hs-578T): > 10 µM (inactive)

Cc1c(-c2nnc(-c3ccccc3)o2)c(=O)n(-c2ccccc2)n1C
GI50 (HOP-18): > 100 µM (inactive)
GI50 (SNB-78): > 100 µM (inactive)
GI50 (KM-20L2): > 100 µM (inactive)
GI50 (M19-MEL): > 100 µM (inactive)
GI50 (DMS-114): > 100 µM (inactive)
GI50 (DLD-1): > 100 µM (inactive)
GI50 (DMS-273): > 100 µM (inactive)

Cc1ccc(O)c(C2=CC(c3cccc(Cl)c3)SC(=N)N2)c1 (configuration not stated)
GI50 (Hs-578T): 19.9 µM (inactive)

On1c(-c2ccccc2)c(-c2ccccc2N2CCCC2)c2ccccc21
GI50 (HOP-18): > 100 µM (inactive)
GI50 (SNB-78): > 100 µM (inactive)
GI50 (KM-20L2): > 100 µM (inactive)
GI50 (M19-MEL): > 100 µM (inactive)
GI50 (DMS-114): 47.2 µM (inactive)
GI50 (DLD-1): > 100 µM (inactive)
GI50 (DMS-273): > 100 µM (inactive)

CC(=O)O[C@H]1C(=O)[C@@]2(C)C(C(OC(=O)c3ccccc3)[C@]3(O)CC(OC(=O)C(O)C(NC(=O)c4ccc(C)cc4)c4ccccc4)C(C)=C1C3(C)C)[C@]1(OC(C)=O)CO[C@@H]1C[C@@H]2O (some centres not stated)
GI50 (SNB-78): 4.02 µM (inactive)
GI50 (KM-20L2): 0.00305 µM (active)
GI50 (M19-MEL): < 0.0025 µM (active)
GI50 (DMS-114): < 0.0025 µM (active)
GI50 (DLD-1): 0.0661 µM (active)
GI50 (DMS-273): < 0.0025 µM (active)

COCN1C(=O)[C@@H]2CCCN2C(=O)c2cc([N+](=O)[O-])ccc21
GI50 (Hs-578T): > 100 µM (inactive)

C=CC1(CC)/C(=N\O)C(CC)(CC)C(=O)N1O (configuration not stated)
GI50 (SNB-78): > 100 µM (inactive)
GI50 (KM-20L2): > 100 µM (inactive)
GI50 (M19-MEL): > 100 µM (inactive)
GI50 (DMS-114): > 100 µM (inactive)
GI50 (DLD-1): > 100 µM (inactive)
GI50 (DMS-273): > 100 µM (inactive)

COc1cccc(/C=N/[N+](C)(C)C)c1O
GI50 (Hs-578T): > 10 µM (inactive)

Nc1ccc2nc(-c3cccc(Cl)c3)cc(O)c2c1
GI50 (Hs-578T): 6.79 µM (inactive)

CC(=O)OC(C)(C)C1CCC(C)(C(O)COc2ccc(CCNC(=O)c3ccccc3)cc2)O1 (configuration not stated)
GI50 (HOP-18): > 100 µM (inactive)
GI50 (SNB-78): 48.3 µM (inactive)
GI50 (KM-20L2): 73.1 µM (inactive)
GI50 (M19-MEL): 37.3 µM (inactive)
GI50 (DMS-114): 12.5 µM (inactive)
GI50 (DLD-1): 31.5 µM (inactive)
GI50 (DMS-273): 33.3 µM (inactive)

CCOC(=O)C(=O)Nc1c(N(CC)CC)n2ccccc2nc1=O
GI50 (SNB-78): > 100 µM (inactive)
GI50 (RXF 631): > 100 µM (inactive)
GI50 (KM-20L2): > 100 µM (inactive)
GI50 (M19-MEL): > 100 µM (inactive)
GI50 (DMS-114): > 100 µM (inactive)
GI50 (DLD-1): > 100 µM (inactive)
GI50 (DMS-273): > 100 µM (inactive)

c1cc(-c2cscc2-c2ccsc2)cs1
GI50 (Hs-578T): 17.4 µM (inactive)

Cc1cc(S(=O)(=O)Nc2n[nH]c(-c3ccc(Cl)cn3)n2)c(S)cc1Cl
GI50 (Hs-578T): 27.9 µM (inactive)

CCCC(=O)n1[nH]c(=O)n(C(C)(C)C)c1=O
GI50 (Hs-578T): > 100 µM (inactive)

CC(=O)O[C@@H]1C=C(C)[C@H](CBr)O[C@@]2(C)CC[C@H](Br)C(C)(C)[C@H]12
GI50 (Hs-578T): > 100 µM (inactive)

Cc1cc2c(c(C(N)=O)c1C)-c1cccc(Cl)c1C2=O
GI50 (SNB-78): > 100 µM (inactive)
GI50 (RXF 631): > 100 µM (inactive)
GI50 (KM-20L2): > 100 µM (inactive)
GI50 (DMS-114): > 100 µM (inactive)
GI50 (DLD-1): > 100 µM (inactive)
GI50 (DMS-273): > 100 µM (inactive)

CSC1=NC(C(N)=O)C(N)N1C (configuration not stated)
GI50 (Hs-578T): > 100 µM (inactive)

COc1ccc(C(C)c2cc3c(cc2O)OCO3)cc1 (configuration not stated)
GI50 (Hs-578T): 20.5 µM (inactive)

COc1cc(-c2[nH]ccc2Cl)oc1C1=C2N=C3C=C2C(C(C)C)C1CCCCCCCC3 (configuration not stated)
GI50 (HOP-18): 0.332 µM (active)
GI50 (SNB-78): 2.83 µM (inactive)
GI50 (KM-20L2): 0.308 µM (active)
GI50 (M19-MEL): 0.603 µM (active)
GI50 (DMS-114): 0.485 µM (active)
GI50 (Hs-578T): 0.253 µM (active)
GI50 (DLD-1): 0.975 µM (active)
GI50 (DMS-273): 0.589 µM (active)

COc1ccc(NC(=O)CC(=O)NNC(Sc2ccccc2)c2cc(/N=N/c3ccc(Br)cc3)ccc2O)cc1 (configuration not stated)
GI50 (Hs-578T): > 10 µM (inactive)

O=C(COc1ccc(Cl)c(Cl)c1)Nc1ccc[n+](Cc2ccc(S(=O)(=O)F)c(Cl)c2)c1
GI50 (Hs-578T): > 100 µM (inactive)
